Reference: patent US6455577B2, “Flavanone derivatives and composition for preventing or treating blood lipid level-related diseases comprising same” (Korea Research Institute of Bioscience and Biotechnology, priority 2000, dated 2002)

What was measured:
[1] = test system: New Zealand White rabbits; test: Abnormal fat-containing liver cells (fatty liver) in cholesterol-fed rabbits; assay type: in vivo, rabbit
Description: (§1) 22 three-month-old New Zealand White rabbits(Yeonam Horticulture and Animal Husbandry College, Korea) each weighing about 2.0 to 2.3 kg were bred under a condition of temperature 20±2° C., relative humidity 55±10%, and photoperiod 12L/12D. The rabbits were divided two groups of 6 rabbits and a group of 10 rabbits, and the rats of three groups were fed with three different diets, i.e., RC4 diet(Oriental Yeast Co., Japan) containing 1% cholesterol(Control group); 1% cholesterol plus 1 mg/kg Lovastatin® (Merck, U.S.A.)(Comparative group); and 1% cholesterol plus 0.1% NG5006, respectively. RC4 diet comprises 7.6% moisture, 22.8% crude protein, 2.8% crude fat, 8.8% crude ash, 14.4% crude cellulose and 43.6% soluble nitrogen-free substances. The rabbits were bred for 8 weeks while being allowed free access to the diets and water.
In order to evaluate the effects of feeding a high cholesterol diet with NG5006 on liver tissues, the liver specimens taken from the sacrificed rabbit in Step 2 of Example 14 were treated in accordance with the procedure disclosed in Fogt F. and Nanji A., Toxicology and Applied Pharmacology, 136, 87-93, 1996; and Keegan A., et al., Journal of Hepatology, 23, 591-600, 1995, and observed under a microscope to be classified into four grades, i.e., 1+(0-25%), 2+(26-50%), 3+(51-75), 4+(76-100%) based on the proportion of abnormal fat-containing cells around the central vein in the liver acinus. The results were tested by student t-test by using Microsoft excel(version 7.0) program.

ACAT = ACAT activity in fed rabbits; assay type: in vivo, rabbit; details: rabbits fed 1% cholesterol plus 1 mg/kg Lovastatin or 0.1% NG5006, 8 weeks
Description: as §1
The effect of feeding NG5006 to rabbits on the activities of ACAT was determined using the rabbits bred in Step 1 of Example 14 in accordance with procedure disclosed in step 1 of Example 13.

ICR mice = test: Toxicity of orally administered NG5006 in mice; assay type: in vivo, mouse; details: single oral dose 1, 2 and 4 g/kg
Description: 4 week-old, specific pathogen-free ICR female mice(12 heads) and male mice(12 heads) were bred under a condition of temperature 22±3° C., moisture 55±10% and photoperiod 12L/12D. Fodder(Cheiljedang Co., mouse and rat fodder) and water were sterilized and fed to the mice.
NG5006 was dissolved in 0.5% Tween 80 to a concentration of 100 mg/ml. The solution thus obtained was orally administered to the mice in amounts of 0.2 ml(1 g/kg), 0.4 ml(2 g/kg) and 0.8 ml(4g/kg) per 20 g of mouse body weight, respectively. […] The weight changes of the mice were recorded every day to examine the effect of NG5006. Further, on the 7th day, the mice were sacrificed and the internal organs were visually examined.

## CCCCCCCCCCCCCCCCOc1cc(O)c2c(c1)OC(c1ccc(O)cc1)CC2=O (stereo not drawn) [NG5006, Naringenin 7-O-cetyl Ether]
[1]; 1% cholesterol plus 1 mg/kg Lovastatin or 0.1% NG5006
  microscopic features of the livers (FIGS. 2B, 2C): almost all liver cells are of a normal shape
[1]; 1% cholesterol plus 0.1% NG5006
  formation of fatty liver compared to the Control and the Lovastatin group, in words: significantly inhibits the formation of fatty liver
[1]; grades 1+(0-25%), 2+(26-50%), 3+(51-75), 4+(76-100%), 1% cholesterol plus 1 mg/kg Lovastatin or 0.1% NG5006, 8 weeks
  Proportion of abnormal fat-containing liver cells (grade): 2.2 ± 0.9
ACAT
  ACAT activity: 215.2 ± 30.3 pmole/min/mg protein
ACAT; versus control group
  % Inhibition on ACAT Activity: 16.2%
ICR mice; 7 day test period
  weight change: no weight loss
ICR mice; observed 7 days
  survival: All the mice were alive at day 7
  toxicity: no toxicity
ICR mice; sacrificed on the 7th day
  autopsy, pathological abnormality: did not develop any pathological abnormality
